Assay results taken from ChEMBL document CHEMBL1154160, “Synthesis, antiviral activity, and stability of nucleoside analogs containing tricyclic bases” (Eur J Med Chem, 2009).

Experiments:
[1] = system: Hepatitis C virus; experiment: Antiviral activity against HCV in human Huh7 cells by RNA replicon assay; format: functional, organism-based, Hepacivirus hominis; conditions: Huh-7
[2] = system: PBMC; experiment: Cytotoxicity against human PBMC cells; format: cell-based; conditions: pbmc
[3] = system: CCRF-CEM; experiment: Cytotoxicity against human CEM cells; format: cell-based; conditions: ccrf-cem
[4] = system: Vero; experiment: Cytotoxicity against african green monkey Vero cells; format: cell-based; conditions: chlorocebus sabaeus, vero
[5] = system: Human immunodeficiency virus; experiment: Antiviral activity against HIV in human PBM cells; conditions: Human immunodeficiency virus 1, PBMC

Nc1nc2c(ncn2[C@H]2CO[C@@H](CO)O2)c(=O)[nH]1
EC50 [1]: > 10 µM
EC90 [1]: > 10 µM
CC50 [2]: > 100 µM
CC50 [3]: > 100 µM
CC50 [4]: > 100 µM
EC50 [5]: 0.51 µM
EC90 [5]: 2.4 µM

COc1ccc(-c2cn3c(=O)c4ncn([C@H]5C=C[C@@H](CO)C5)c4nc3[nH]2)cc1
EC50 [1]: > 10 µM
EC90 [1]: > 10 µM
CC50 [2]: > 100 µM
CC50 [3]: > 100 µM
CC50 [4]: > 100 µM
EC50 [5]: 0.62 µM
EC90 [5]: 4.9 µM

[N-]=[N+]=Nc1ccc(-c2cn3c(=O)c4ncn([C@H]5CO[C@@H](CO)O5)c4nc3[nH]2)cc1
EC50 [1]: > 10 µM
EC90 [1]: > 10 µM
CC50 [2]: > 100 µM
CC50 [3]: > 100 µM
CC50 [4]: > 100 µM
EC50 [5]: 2.6 µM
EC90 [5]: 11.4 µM

N#Cc1ccc(-c2cn3c(=O)c4ncn([C@H]5CO[C@@H](CO)O5)c4nc3[nH]2)cc1
EC50 [1]: > 10 µM
EC90 [1]: > 10 µM
CC50 [2]: > 100 µM
CC50 [3]: > 100 µM
CC50 [4]: > 100 µM
EC50 [5]: 69.3 µM
EC90 [5]: > 100 µM

COc1ccc(-c2cn3c(=O)c4ncn([C@H]5C[C@H](N=[N+]=[N-])[C@@H](CO)O5)c4nc3[nH]2)cc1
EC50 [1]: > 10 µM
EC90 [1]: > 10 µM
CC50 [2]: 56.7 µM
CC50 [3]: 13.5 µM
CC50 [4]: > 100 µM
EC50 [5]: 1.3 µM
EC90 [5]: 7 µM

O=c1c2ncn([C@H]3C=C[C@@H](CO)C3)c2nc2[nH]c(-c3cccs3)cn12
EC50 [1]: > 10 µM
EC90 [1]: > 10 µM
CC50 [2]: > 100 µM
CC50 [3]: > 100 µM
CC50 [4]: > 100 µM
EC50 [5]: 0.64 µM
EC90 [5]: 7.1 µM

CCc1cn2c(=O)c3ncn([C@H]4CO[C@@H](CO)O4)c3nc2[nH]1
EC50 [1]: > 10 µM
EC90 [1]: > 10 µM
CC50 [2]: > 100 µM
CC50 [3]: > 100 µM
CC50 [4]: > 100 µM
EC50 [5]: 31.5 µM
EC90 [5]: > 100 µM

Cc1ccc(-c2cn3c(=O)c4ncn([C@H]5C=C[C@@H](CO)C5)c4nc3[nH]2)cc1
EC50 [1]: > 10 µM
EC90 [1]: > 10 µM
CC50 [2]: > 100 µM
CC50 [3]: > 100 µM
CC50 [4]: > 100 µM
EC50 [5]: 5 µM
EC90 [5]: 30.1 µM

O=c1c2ncn([C@H]3CO[C@@H](CO)O3)c2nc2[nH]c(-c3cccs3)cn12
EC50 [1]: > 10 µM
EC90 [1]: > 10 µM
CC50 [2]: > 100 µM
CC50 [3]: > 100 µM
CC50 [4]: > 100 µM
EC50 [5]: 3 µM
EC90 [5]: 16 µM

COc1cccc(-c2cn3c(=O)c4ncn([C@H]5CO[C@@H](CO)O5)c4nc3[nH]2)c1
EC50 [1]: > 10 µM
EC90 [1]: > 10 µM
CC50 [2]: > 100 µM
CC50 [3]: > 100 µM
CC50 [4]: > 100 µM
EC50 [5]: 20.7 µM
EC90 [5]: 89.6 µM

O=c1c2ncn([C@H]3CO[C@@H](CO)O3)c2nc2[nH]c(-c3ccsc3)cn12
EC50 [1]: > 10 µM
EC90 [1]: > 10 µM
CC50 [2]: > 100 µM
CC50 [3]: > 100 µM
CC50 [4]: > 100 µM
EC50 [5]: 0.91 µM
EC90 [5]: 6.6 µM

C[C@@]1(O)[C@H](O)[C@@H](CO)O[C@H]1n1cnc2c(=O)n3cc(-c4cccs4)[nH]c3nc21
EC50 [1]: 6.9 µM
EC90 [1]: 25.6 µM
CC50 [2]: > 100 µM
CC50 [3]: > 100 µM
CC50 [4]: 44.3 µM
EC50 [5]: > 100 µM
EC90 [5]: > 100 µM

CN(C)c1ccc(-c2cn3c(=O)c4ncn([C@H]5CO[C@@H](CO)O5)c4nc3[nH]2)cc1
EC50 [1]: > 10 µM
EC90 [1]: > 10 µM
CC50 [2]: > 100 µM
CC50 [3]: > 100 µM
CC50 [4]: > 100 µM
EC50 [5]: 0.61 µM
EC90 [5]: 1.5 µM

CCN(CC)c1ccc(-c2cn3c(=O)c4ncn([C@H]5C=C[C@@H](CO)C5)c4nc3[nH]2)cc1
EC50 [1]: > 10 µM
EC90 [1]: > 10 µM
CC50 [2]: > 100 µM
CC50 [3]: > 100 µM
CC50 [4]: > 100 µM
EC50 [5]: 0.13 µM
EC90 [5]: 0.65 µM

CN(C)c1ccc(-c2cn3c(=O)c4ncn([C@H]5C[C@H](N=[N+]=[N-])[C@@H](CO)O5)c4nc3[nH]2)cc1
EC50 [1]: > 10 µM
EC90 [1]: > 10 µM
CC50 [2]: > 100 µM
CC50 [3]: 74.6 µM
CC50 [4]: > 100 µM
EC50 [5]: 0.14 µM
EC90 [5]: 0.54 µM

O=c1c2ncn([C@H]3C=C[C@@H](CO)C3)c2nc2[nH]c(-c3ccsc3)cn12
EC50 [1]: > 10 µM
EC90 [1]: > 10 µM
CC50 [2]: > 100 µM
CC50 [3]: > 100 µM
CC50 [4]: > 100 µM
EC50 [5]: 2.6 µM
EC90 [5]: 15.5 µM

O=c1c2ncn([C@H]3CO[C@@H](CO)O3)c2nc2[nH]c(-c3ccc(F)cc3)cn12
EC50 [1]: > 10 µM
EC90 [1]: > 10 µM
CC50 [2]: > 100 µM
CC50 [3]: > 100 µM
CC50 [4]: > 100 µM
EC50 [5]: 43.5 µM
EC90 [5]: > 100 µM

O=c1c2ncn([C@H]3C=C[C@@H](CO)C3)c2nc2[nH]c(-c3ccc(Br)cc3)cn12
EC50 [1]: > 10 µM
EC90 [1]: > 10 µM
CC50 [2]: > 100 µM
CC50 [3]: > 100 µM
CC50 [4]: > 100 µM
EC50 [5]: 12.3 µM
EC90 [5]: 43.2 µM

CN(C)c1ccc(-c2cn3c(=O)c4ncn([C@H]5C=C[C@@H](CO)C5)c4nc3[nH]2)cc1
EC50 [1]: > 10 µM
EC90 [1]: > 10 µM
CC50 [2]: 24 µM
CC50 [3]: > 100 µM
CC50 [4]: > 100 µM
EC50 [5]: 0.11 µM
EC90 [5]: 0.47 µM

Cc1ccc(-c2cn3c(=O)c4ncn([C@H]5CO[C@@H](CO)O5)c4nc3[nH]2)cc1
EC50 [1]: > 10 µM
EC90 [1]: > 10 µM
CC50 [2]: > 100 µM
CC50 [3]: > 100 µM
CC50 [4]: > 100 µM
EC50 [5]: 4.9 µM
EC90 [5]: 23.9 µM

[N-]=[N+]=N[C@H]1C[C@H](n2cnc3c(=O)n4cc(-c5ccccc5)[nH]c4nc32)O[C@@H]1CO
EC50 [1]: > 10 µM
EC90 [1]: > 10 µM
CC50 [2]: 69.6 µM
CC50 [3]: 21.8 µM
CC50 [4]: > 100 µM
EC50 [5]: 8.4 µM
EC90 [5]: 94.1 µM

O=c1c2ncn([C@H]3CO[C@@H](CO)O3)c2nc2[nH]c(-c3ccc(F)cc3F)cn12
EC50 [1]: > 10 µM
EC90 [1]: > 10 µM
CC50 [2]: > 100 µM
CC50 [3]: > 100 µM
CC50 [4]: > 100 µM
EC50 [5]: 14.7 µM
EC90 [5]: 51.8 µM

COc1ccc(-c2cn3c(=O)c4ncn([C@H]5CO[C@@H](CO)O5)c4nc3[nH]2)cc1
EC50 [1]: > 10 µM
EC90 [1]: > 10 µM
CC50 [2]: > 100 µM
CC50 [3]: > 100 µM
CC50 [4]: > 100 µM
EC50 [5]: 3.45 µM
EC90 [5]: 23.9 µM

CCN(CC)c1ccc(-c2cn3c(=O)c4ncn([C@H]5CO[C@@H](CO)O5)c4nc3[nH]2)cc1
EC50 [1]: > 10 µM
EC90 [1]: > 10 µM
CC50 [2]: > 100 µM
CC50 [3]: 80.8 µM
CC50 [4]: 63 µM
EC50 [5]: 0.25 µM
EC90 [5]: 1.25 µM

CN(C)c1ccc(-c2cn3c(=O)c4ncn([C@@H]5O[C@H](CO)[C@@H](O)[C@@]5(C)O)c4nc3[nH]2)cc1
CC50 [3]: > 100 µM
CC50 [4]: > 100 µM

COc1ccccc1-c1cn2c(=O)c3ncn([C@H]4CO[C@@H](CO)O4)c3nc2[nH]1
EC50 [1]: > 10 µM
EC90 [1]: > 10 µM
CC50 [2]: > 100 µM
CC50 [3]: > 100 µM
CC50 [4]: > 100 µM
EC50 [5]: 8.5 µM
EC90 [5]: 26.8 µM

O=c1c2ncn([C@H]3CO[C@@H](CO)O3)c2nc2[nH]c(-c3ccc(Cl)cc3)cn12
EC50 [1]: > 10 µM
EC90 [1]: > 10 µM
CC50 [2]: > 100 µM
CC50 [3]: > 100 µM
CC50 [4]: > 100 µM
EC50 [5]: > 100 µM
EC90 [5]: > 100 µM

O=c1c2ncn([C@H]3CO[C@@H](CO)O3)c2nc2[nH]c(-c3ccccc3)cn12
EC50 [1]: > 10 µM
EC90 [1]: > 10 µM
CC50 [2]: > 100 µM
CC50 [3]: > 100 µM
CC50 [4]: > 100 µM
EC50 [5]: 7.1 µM
EC90 [5]: 43.5 µM
